According to BigSolDB 2.1:

Nc1c([N+](=O)[O-])c2no[n+]([O-])c2c2no[n+]([O-])c12
solubility (mole fraction)
Conditions | 288.15 K | 293.15 K | 298.15 K | 303.15 K | 308.15 K | 313.15 K | 318.15 K | 323.15 K | 328.15 K | 333.15 K
in 1,2-dichloroethane | 2.98e-05 | 3.64e-05 | 4.41e-05 | 5.31e-05 | 6.32e-05 | 7.49e-05 | 8.9e-05 | 0.000105 | 0.000122 | 0.000142
in DMF | 0.00618 | 0.00747 | 0.00896 | 0.0107 | 0.0126 | 0.0149 | 0.0175 | 0.0204 | 0.0236 | 0.0273
in DMSO | – | 0.0118 | 0.0138 | 0.0161 | 0.0187 | 0.0217 | 0.0249 | 0.0286 | 0.0327 | 0.0373
in NMP | 0.00799 | 0.00948 | 0.0112 | 0.0131 | 0.0153 | 0.0178 | 0.0206 | 0.0237 | 0.0272 | 0.031
in acetic acid | – | 7.86e-05 | 9.36e-05 | 0.000112 | 0.000131 | 0.000154 | 0.000178 | 0.000206 | 0.000237 | 0.000271
in acetone | 0.000797 | 0.00087 | 0.000968 | 0.00109 | 0.00123 | 0.00137 | 0.00154 | 0.00174 | – | –
in acetonitrile | 0.000322 | 0.000374 | 0.000434 | 0.000497 | 0.00057 | 0.000654 | 0.000744 | 0.000845 | 0.000956 | 0.00108
in cyclohexanone | 0.0018 | 0.00198 | 0.00218 | 0.0024 | 0.00266 | 0.00295 | 0.00328 | 0.00366 | 0.00409 | 0.00457
in dichloromethane | 1.37e-05 | 1.73e-05 | 2.15e-05 | 2.68e-05 | 3.31e-05 | – | – | – | – | –
in ethanol | 6.85e-06 | 8.94e-06 | 1.18e-05 | 1.52e-05 | 1.95e-05 | 2.47e-05 | 3.14e-05 | 3.94e-05 | 4.92e-05 | 6.02e-05
in ethyl acetate | 0.000211 | 0.000244 | 0.00028 | 0.000321 | 0.000367 | 0.000419 | 0.000475 | 0.000536 | 0.000605 | 0.000681
in methanol | 1.44e-05 | 1.88e-05 | 2.42e-05 | 3.14e-05 | 4.01e-05 | 5.01e-05 | 6.33e-05 | 7.91e-05 | 9.73e-05 | 0.000121
in o-xylene | 2.4e-05 | 3.15e-05 | 4.14e-05 | 5.34e-05 | 6.87e-05 | 8.74e-05 | 0.000109 | 0.000137 | 0.000169 | 0.000208
in propionic acid | 1.94e-05 | 2.45e-05 | 3.15e-05 | 3.97e-05 | 4.97e-05 | 6.16e-05 | 7.63e-05 | 9.37e-05 | 0.000114 | 0.00014
in toluene | 1.03e-05 | 1.34e-05 | 1.84e-05 | 2.45e-05 | 3.26e-05 | 4.29e-05 | 5.63e-05 | 7.28e-05 | 9.4e-05 | 0.00012
